Measurements taken from patent US20100260675A1, “Oxytocin Receptor Antagonists and Their Use for the Treatment of Pulmonary Related Diseases” (priority 2004, published 2010).
Values belong to the compound of their own block, whether it stands above or below them.

Key:
[1] = target: T1, Oxytocin Receptor on human airway smooth muscle cells (HASMC) (Homo sapiens, UniProt P30559); experiment: Calcium influx in human airway smooth muscle cells after addition of oxytocin; assay type: cell-based; settings: FIG. 4
T1 construct: the Oxytocin Receptor expressed on the surface of human airway smooth muscle cells is functional; endogenous in cells; host or cells: primary human airway smooth muscle cells (HASMC)
T1 sequence (P30559 1-389): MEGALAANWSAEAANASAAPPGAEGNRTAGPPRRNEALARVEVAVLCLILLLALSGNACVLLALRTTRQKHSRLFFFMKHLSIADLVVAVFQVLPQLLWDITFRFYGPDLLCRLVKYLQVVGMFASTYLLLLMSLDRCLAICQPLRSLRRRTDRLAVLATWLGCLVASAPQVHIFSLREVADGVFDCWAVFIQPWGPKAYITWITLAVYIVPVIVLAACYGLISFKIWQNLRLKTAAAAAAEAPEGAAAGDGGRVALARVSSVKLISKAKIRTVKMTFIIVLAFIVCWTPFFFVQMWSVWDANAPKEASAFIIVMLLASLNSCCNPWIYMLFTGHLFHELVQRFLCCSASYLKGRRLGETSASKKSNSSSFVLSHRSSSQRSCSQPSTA
Method: In order to determine whether the Oxytocin Receptor expressed on the surface of human airway smooth muscle cells is functional, the amount of influx of calcium was measured. HASMC were serum starved and then either unstimulated or stimulated with IL-13 (50 ng/ml) for 24 hours. The amount of calcium that mobilized Into the cells was measured after addition of oxytocin (100 nM or 500 nM).

[2] = tested on: Oxytocin Receptor (OXTR) mRNA in primary human airway smooth muscle cells; experiment: Real Time PCR analysis of oxytocin receptor mRNA in cytokine-stimulated primary human airway smooth muscle cells; assay type: cell-based; settings: for level of OXTR mRNA normalized to 18S mRNA and relative to untreated control (0 hour timepoint): primary HASMC from normal donors, 50 ng/ml; for induced expression of the Oxytocin Receptor normalized to 18S and relative to untreated control (0 hour timepoint): primary HASMC from two normal donors, 10 ng/ml
Method: In order to confirm the microarray finding by an independent means, Real Time PCR technology was employed. Primary human airway smooth muscle cells from “normal” donors were cultured with IL-13 or a naturally occurring mutant form IL-13R130Q (associated with high serum IgE levels) for 0, 6 hours or 18 hours at 50 ng/ml after allowing the cell to rest for 24 hours. Total RNA was isolated, reverse transcribed and used in Real Time PCR analysis for oxytocin receptor using the Applied Biosystems Gene Expression Assay (ID number Hs00168573_m1) on the ABI PRISM® 7900HT Sequence Detection System. At 6 hours, the level of OXTR mRNA normalized to 18S mRNA and relative to untreated control (i.e., 0 hour time point) was 1.95 (Std Dev. 0.41) when cells were stimulated with WT IL-13 and 1.79 (Std Dev. 0.22) when stimulated with R130Q. At 18 hours, the level of OXTR mRNA normalized to 18S mRNA and relative to untreated control (i.e., 0 hour timepoint) was 2.02 (Std Dev. 0.42) when the cells were stimulated with WT IL-13 and 3.58 (Std Dev. 0.74) when stimulated with R130Q.
Primary human airway smooth muscle cells from two “normal” donors were cultured with tumor necrosis factor alpha (TNFα) for 0, 6 hours or 18 hours at 10 ng/ml after resting the cells for 24 hours. Total RNA was isolated, reverse transcribed and used in Real Time PCR analysis for the Oxytocin Receptor. TNFα induced the expression of the Oxytocin Receptor by 4.88 (Std Dev. 1.13) at 6 hours and 7.06 (Std. Dev. 1.42) at the 18-hour time point normalized to 18S and relative to untreated control (i.e., 0 hour timepoint).

[3] = tested on: Oxytocin Receptor mRNA in trachea; experiment: Oxytocin Receptor RNA expression in trachea, in vivo model of acute asthma (Real Time PCR); settings: mice immunized i.p. day 1 and 8, challenged intranasally days 22-24, trachea day 25
Method: The RNA expression of Oxytocin Receptor in an in vivo model of acute asthma was tested. The mice were immunized with ovalbumin intraperitoneal on day 1 and day 8 and then challenged intranasally on days 22, 23 and 24. On day 25, the mice were euthanized. The trachea were extracted for RNA isolation and used in Real Time PCR analysis for Oxytocin Receptor.

Ca influx in human airway smooth muscle cells ([1]; serum-starved HASMC, oxytocin 100 nM or 500 nM): induces Ca influx
Compound: CC[C@H](C)[C@@H]1NC(=O)[C@H](Cc2ccc(O)cc2)NC(=O)[C@@H](N)CSSC[C@@H](C(=O)N2CCC[C@H]2C(=O)N[C@@H](CC(C)C)C(=O)NCC(N)=O)NC(=O)[C@H](CC(N)=O)NC(=O)[C@H](CCC(N)=O)NC1=O [oxytocin]

effect on oxytocin-induced calcium influx in HASMC ([1]; IL-13 50 ng/ml for 24 hours, at low concentrations of oxytocin): further enhances calcium influx
Compound: IL-13: wild-type interleukin 13, Th2 derived cytokine used to stimulate airway smooth muscle cells
level of OXTR mRNA normalized to 18S mRNA and relative to untreated control (0 hour timepoint) ([2]; 6 hours): 1.95 (Std Dev. 0.41)
level of OXTR mRNA normalized to 18S mRNA and relative to untreated control (0 hour timepoint) ([2]; 18 hours): 2.02 (Std Dev. 0.42)

Compound: TNFα
induced expression of the Oxytocin Receptor normalized to 18S and relative to untreated control (0 hour timepoint) ([2]; 18-hour time point): 7.06 (Std. Dev. 1.42)
induced expression of the Oxytocin Receptor normalized to 18S and relative to untreated control (0 hour timepoint) ([2]; 6 hours): 4.88 (Std Dev. 1.13)

Compound: ovalbumin: allergen used to immunize and challenge mice in the acute asthma model
Oxytocin Receptor mRNA in trachea compared to PBS control [3]: 1.5 fold
